In patent US9265253B2, “Use of macrocyclic picolinamides as fungicides” (DOW AGROSCIENCES LLC, priority 2013, dated 2016):
Read-outs that look alike come from different tables or passages of the source.

Assays:
Assay type in all cases: in vivo
[1] = system: Mycosphaerella graminicola; Anamorph: Septoria tritici; assay: Leaf Blotch of Wheat (SEPTTR) disease control; settings: Zymoseptoria tritici; for pest or weed control at 100 ppm: rate 100 ppm
Method in brief: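 Protective or curative format: Septoria tritici inoculation either preceded or followed fungicide application to first-leaf Yuma wheat. Severity scored 0–100%; control expressed versus untreated.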

[2] = system: Puccinia triticina; Synonym: Puccinia recondite f. Sp. Tritici; assay: Wheat Brown Rust (PUCCRT) disease control; settings: Puccinia triticina, topical; for pest or weed control at 100 ppm: rate 100 ppm
Method in brief: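 Brown rust on first-leaf Yuma wheat: spore inoculation before or after spray application (acetone/Triton X-100 solution, or EC with Trycol in track spray), overnight 100% RH at 22 °C, disease developed at 24 °C. Severity scored 0–100% and converted to percent control against untreated.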

Uncinula necator = assay: Grape Powdery Mildew (UNCINE) disease control; settings: Erysiphe necator, topical, 24 h, 1 Day Protectant, read-out: Disease Control UNCINE 1 DP
Description: Technical grades of materials were dissolved in acetone, which were then mixed with nine volumes of water containing 110 ppm Triton X-100. The fungicide solutions were applied onto wheat seedlings using an automated booth sprayer to run-off. All sprayed plants were allowed to air dry prior to further handling. All fungicides were evaluated using the aforementioned method for their activity vs. all target diseases. Wheat leaf blotch and brown rust activity were also evaluated using track spray applications, in which case the fungicides were formulated as EC formulations, containing 0.1% Trycol 5941 in the spray solutions. Wheat plants (variety Yuma) were grown from seed in a greenhouse in 50% mineral soil/50% soil-less Metro mix until the first leaf was fully emerged, with 7-10 seedlings per pot. These plants were inoculated with an aqueous spore suspension of Septoria tritici either prior to or after fungicide treatments. After inoculation the plants were kept in 100% relative humidity (one day in a dark dew chamber followed by two to three days in a lighted dew chamber at 20° C.) to permit spores to germinate and infect the leaf. The plants were then transferred to a greenhouse set at 20° C. for disease to develop. When disease symptoms were fully expressed on the 1st leaves of untreated plants, infection levels were assessed on a scale of 0 to 100 percent disease severity. Percent disease control was calculated using the ratio of disease severity on treated plants relative to untreated plants. Grape seedlings (variety Carignane) were grown in soil-less Metro mix, with one plant per pot, and used in the test when approximately one month old. Plants were inoculated 24 hr after fungicide treatment by shaking spores from infected leaves over test plants. Plants were maintained in a greenhouse set at 20° C. until disease was fully developed. Fungicide formulation, application and disease assessment on the sprayed leaves followed the procedures as described in the Example A.

Phakopsora pachyrhizi = assay: Asian Soybean Rust (PHAKPA) disease control; settings: Phakopsora pachyrhizi, topical
Description: Technical grades of materials were dissolved in acetone, which were then mixed with nine volumes of water containing 0.011% Tween 20. The fungicide solutions were applied onto soybean seedlings using an automated booth sprayer to run-off. All sprayed plants were allowed to air dry prior to further handling.
Soybean plants (variety Williams 82) were grown in soil-less Metro mix, with one plant per pot. Two weeks old seedlings were used for testing. Plants were inoculated either 3 days prior to or 1 day after fungicide treatments. Plants were incubated for 24 h in a dark dew room at 22° C. and 100% RH then transferred to a growth room at 23° C. for disease to develop. Disease severity was assessed on the sprayed leaves.

[3] = 24 h, 1 Day Protectant, read-out: SEPTTR 1 DP disease control
[4] = 24 h, 1 Day Protectant, rate 121.5 g/H, read-out: SEPTTR 1 DP disease control
[5] = 72 h, 3 Day Curative, read-out: SEPTTR 3 DC disease control
[6] = 72 h, 3 Day Curative, rate 121.5 g/H, read-out: SEPTTR 3 DC disease control
[7] = 24 h, 1 Day Protectant, read-out: PUCCRT 1 DP disease control
[8] = 24 h, 1 Day Protectant, rate 121.5 g/H, read-out: PUCCRT 1 DP disease control
[9] = 72 h, 3 Day Curative, read-out: PUCCRT 3 DC disease control
[10] = 72 h, 3 Day Curative, rate 121.5 g/H, read-out: PUCCRT 3 DC disease control
[11] = 24 h, 1 Day Protectant, read-out: Disease Control PHAKPA 1DP
[12] = 72 h, 3 Day Curative, read-out: Disease Control PHAKPA 3DC

Structure (SMILES)	pest or weed control at 100 ppm [1, 3] [%]	pest or weed control at 121.5 g/ha [1, 4] [%]	pest or weed control at 100 ppm [1, 5] [%]	pest or weed control at 121.5 g/ha [1, 6] [%]	pest or weed control at 100 ppm [2, 7] [%]	pest or weed control at 121.5 g/ha [2, 8] [%]	pest or weed control at 100 ppm [2, 9] [%]	pest or weed control at 121.5 g/ha [2, 10] [%]	pest or weed control at 100 ppm (Uncinula necator) [%]	pest or weed control at 25 ppm (Phakopsora pachyrhizi; [11]) [%]	pest or weed control at 25 ppm (Phakopsora pachyrhizi; [12]) [%]	pest or weed control at 121.5 g/ha ([1]; 24 h, Wheat Leaf Blotch, 1 Day Protectant, rate 121.5 g/H (low volume application), read-out: Disease control SEPTTR 1 DP) [%]	pest or weed control at 121.5 g/ha ([1]; 72 h, Wheat Leaf Blotch, 3 Day Curative, rate 121.5 g/H (low volume application), read-out: Disease control SEPTTR 3 DC) [%]	pest or weed control at 121.5 g/ha ([2]; 24 h, Wheat Brown Rust, 1 Day Protectant, rate 121.5 g/H (low volume application), read-out: Disease control PUCCRT 1 DP) [%]	pest or weed control at 121.5 g/ha ([2]; 72 h, Wheat Brown Rust, 3 Day Curative, rate 121.5 g/H (low volume application), read-out: Disease control PUCCRT 3 DC) [%]
CCCO[C@@H]1[C@@H](CCC(C)C)CCC[C@H](NC(=O)c2nccc(OC)c2OC(C)=O)C(=O)O[C@H]1C [Compound F64]	80 to 100	80 to 100	80 to 100	80 to 100	80 to 100	80 to 100	80 to 100	80 to 100	80 to 100	80 to 100	80 to 100	–	–	–	–
COc1ccnc(C(=O)N[C@H]2CCC[C@H](Cc3ccc(F)cc3)[C@@H](OCC3CC3)[C@H](C)OC2=O)c1OC(C)=O [Compound F67]	80 to 100	80 to 100	80 to 100	80 to 100	80 to 100	80 to 100	80 to 100	80 to 100	0 to 80	80 to 100	0 to 80	–	–	–	–
CCO[C@@H]1[C@@H](Cc2ccccc2)CCC[C@H](NC(=O)c2nccc(OC)c2OC(C)=O)C(=O)O[C@H]1C [Compound F87]	–	80 to 100	–	80 to 100	–	80 to 100	–	80 to 100	80 to 100	–	–	–	–	–	–
CCCO[C@@H]1[C@@H](Cc2ccccc2)CCC[C@H](NC(=O)c2nccc(OC)c2OC(C)=O)C(=O)O[C@H]1C [Compound F88]	–	80 to 100	–	80 to 100	–	80 to 100	–	80 to 100	80 to 100	–	–	–	–	–	–
COc1ccnc(C(=O)N[C@H]2CCC[C@H](Cc3ccc(F)cc3)[C@@H](OCC(C)C)[C@H](C)OC2=O)c1OCOC(C)=O [Compound F102]	80 to 100	80 to 100	80 to 100	80 to 100	80 to 100	80 to 100	80 to 100	0 to 80	0 to 80	–	–	–	–	–	–
COc1ccnc(C(=O)N[C@H]2CCC[C@H](Cc3ccccc3)[C@@H](Oc3ccccc3)[C@H](C)OC2=O)c1OCOC(C)=O [Compound F108]	80 to 100	80 to 100	80 to 100	80 to 100	80 to 100	80 to 100	80 to 100	0 to 80	80 to 100	–	–	–	–	–	–
COc1ccnc(C(=O)N[C@H]2CCC[C@H](Cc3ccccc3)[C@@H](OC3CCCC3)[C@H](C)OC2=O)c1OCOC(C)=O [Compound F110]	80 to 100	80 to 100	80 to 100	80 to 100	80 to 100	80 to 100	80 to 100	80 to 100	80 to 100	–	–	–	–	–	–
COc1ccc(C[C@H]2CCC[C@H](NC(=O)c3nccc(OC)c3OCOC(C)=O)C(=O)O[C@@H](C)[C@@H]2Oc2ccccc2)cc1 [Compound F114]	80 to 100	80 to 100	80 to 100	80 to 100	80 to 100	80 to 100	80 to 100	0 to 80	–	–	–	–	–	–	–
COc1ccc(C[C@H]2CCC[C@H](NC(=O)c3nccc(OC)c3OCOC(C)=O)C(=O)O[C@@H](C)[C@@H]2OCC(C)C)cc1 [Compound F118]	80 to 100	80 to 100	80 to 100	80 to 100	80 to 100	80 to 100	80 to 100	80 to 100	–	80 to 100	0 to 80	–	–	–	–
CCCO[C@@H]1[C@@H](Cc2ccc(OC)cc2)CCC[C@H](NC(=O)c2nccc(OC)c2OCOC(C)=O)C(=O)O[C@H]1C [Compound F119]	80 to 100	80 to 100	80 to 100	80 to 100	80 to 100	80 to 100	80 to 100	80 to 100	–	80 to 100	0 to 80	–	–	–	–
COc1ccnc(C(=O)N[C@H]2CCC[C@H](Cc3ccc(C)cc3)[C@@H](OCC(C)C)[C@H](C)OC2=O)c1OCOC(C)=O [Compound F126]	80 to 100	80 to 100	80 to 100	80 to 100	80 to 100	80 to 100	80 to 100	0 to 80	–	–	–	–	–	–	–
COc1ccnc(C(=O)N[C@H]2CCC[C@H](Cc3ccccc3)[C@@H](OCC(C)C)[C@H](C)OC2=O)c1OCOC(=O)C(C)C [Compound F151]	80 to 100	80 to 100	80 to 100	80 to 100	80 to 100	80 to 100	80 to 100	80 to 100	–	80 to 100	80 to 100	–	–	–	–
CCOCC(=O)OCOc1c(OC)ccnc1C(=O)N[C@H]1CCC[C@H](CC2CCCCC2)[C@@H](OCC(C)C)[C@H](C)OC1=O [Compound F175]	80 to 100	80 to 100	80 to 100	0 to 80	80 to 100	80 to 100	80 to 100	0 to 80	0 to 80	–	–	–	–	–	–
CCCO[C@@H]1[C@@H](Cc2ccccc2)CCC[C@H](NC(=O)c2nccc(OC)c2OC(=O)CCOC)C(=O)O[C@H]1C [Compound F198]	–	–	–	–	–	–	–	–	80 to 100	–	–	80 to 100	80 to 100	80 to 100	80 to 100
